Measurements reported in article PMC9234021 (Cell Reports, 2022).
Read-outs that look alike come from different tables or passages of the source. No end group written: not given here.

B1: SARS-CoV-2 E peptide, residues 48-58, acetylated at K53 (peptide)
peptide: NVSLVK(Ac)PSFYV
B2: SARS-CoV-2 E peptide, residues 58-68, acetylated at K63 (peptide)
peptide: VYSRVK(Ac)NLNSS

Experiments:
A549 cells = test: qRT-PCR of poly; format: cell-based
Calu3 cells [1] = test: Cell viability; format: cell-based; details: Calu3, 500 nM, 48 hours, CellTiter-Glo, relative to DMSO
BET proteins = details: cited from earlier work
Calu3 cells [2] = format: cell-based
A549-ACE2 cells = test: Cell viability; format: cell-based; details: A549-ACE2, 500 nM, 48 hours, CellTiter-Glo, relative to DMSO
[3] = system: SARS-CoV-2 nucleocapsid (N) protein; format: in vivo, K18-hACE2 C57BL/6J mice; details: JQ1 50 mg/kg i.p. or ABBV-744 20 mg/kg oral once daily
[4] = system: lungs of SARS-CoV-2 infected mice; set-up: species or system K18-hACE2 C57BL/6J mice; details: mouse, in vivo
SARS-CoV-2 [5] = system: SARS-CoV-2; set-up: species or system K18-hACE2 C57BL/6J mice; details: mouse, in vivo
influenza A = details: cited from earlier work
[6] = identical treatment with JQ1 or ABBV-744, H&E
SARS-CoV-2 [7] = format: in vivo, K18-hACE2 C57BL/6J mice; details: JQ1 50 mg/kg i.p. or ABBV-744 20 mg/kg oral once daily, n = 5 per group
SARS-CoV-2 [8] = details: mouse, in vivo; cited from earlier work
SARS-CoV-2 [9] = format: cell-based, SARS-CoV-2 isolate USA-WA1/2020; details: p = 0.0004, three independent experiments in triplicate
SARS-CoV-2 [10] = format: cell-based, SARS-CoV-2 isolate USA-WA1/2020; details: p = 0.0001, three independent experiments in duplicate
[11] = target: BRD4 second bromodomain BD2 (349-460), His-SUMO tag removed (UniProt O60885 349-460, 15N-labeled); test: NMR titration
[12] = pan-BET inhibitors, no reference given

Molecule | poly(I:C)-mediated induction of IFNB1 (A549 cells) | poly(I:C)-mediated induction of IL6 (A549 cells) | poly(I:C)-mediated induction of ISG15 (A549 cells) | bromodomain specificity (BET proteins; [12]) | IFNB1 expression (Calu3 cells [2]) | IL6 expression (Calu3 cells [2]) | ISG15 expression (Calu3 cells [2]) | immunohistochemical staining for SARS-CoV-2 N protein in lungs [3] | CCL2 expression in lungs [4] | CXCL9 expression in lungs [4] | CXCL10 expression in lungs [4] | IL1a expression in lungs [4] | IL6 expression in lungs [4] | ISG15 expression in lungs [4] | RIG-I expression in lungs [4] | immune cell infiltration in the lungs (SARS-CoV-2 [5]) | lung inflammation in healthy, uninfected mice [6] | increase in infectious particle production in lungs (SARS-CoV-2 [7]) [fold] | Kd [11] [µM] | further results
Cc1sc2c(c1C)C(c1ccc(Cl)cc1)=N[C@@H](CC(=O)NCCCCCCCCNC(=O)COc1cccc3c1C(=O)N(C1CCC(=O)NC1=O)C3=O)c1nnc(C)n1-2 (stereo partly shown) [dBET6] | dampened | dampened | dampened | disrupt BD1- and BD2-mediated interactions | suppressed | suppressed | suppressed | – | – | – | – | – | – | – | – | – | – | – | – | viability (Calu3 cells [1]): non-toxic; viability (A549-ACE2 cells): non-toxic
Cc1sc2c(c1C)C(c1ccc(Cl)cc1)=N[C@@H](CC(=O)OC(C)(C)C)c1nnc(C)n1-2 [JQ1] | dampened | dampened | dampened | disrupt BD1- and BD2-mediated interactions | suppressed | suppressed | suppressed | increased | significant decreases | significant decreases | significant decreases | significant decreases | significant decreases | significant decreases | significant decreases | decrease in immune cell infiltration | did not experience lung inflammation | 18 | – | transcriptional activation of the antiviral response (influenza A): attenuates transcriptional activation of the antiviral response
Cc1noc(C)c1-c1ccc2[nH]c(=O)n3c2c1OC[C@@H]3c1ccccn1 [INCB054329] | – | – | – | – | – | – | – | – | – | – | – | – | – | – | – | – | – | – | – | lung pathology (SARS-CoV-2 [8]): severe lung pathology; viral RNA in the lungs (SARS-CoV-2 [8]): significant viral RNA in the lungs
CCNC(=O)c1cc2c(-c3cc(C(C)(C)O)ccc3Oc3c(C)cc(F)cc3C)cn(C)c(=O)c2[nH]1 [ABBV-744, N-Ethyl-4-[2-(4-fluoro-2,6-dimethyl-phenoxy)-5-(1-hydroxy-1-methyl-ethyl)phenyl]-6-methyl-7-oxo-1H-pyrrolo[2,3-c]pyridine-2-carboxamide] | – | – | – | – | – | – | – | increased | significant decreases | significant decreases | significant decreases | significant decreases | significant decreases | significant decreases | significant decreases | decrease in immune cell infiltration | did not experience lung inflammation | 37 | – | increase in SARS-CoV-2 viral RNA (SARS-CoV-2 [9]): 3 fold; bromodomain specificity (BET proteins; ABBV-744, ref Sheppard et al., 2020): specifically targets BD2-mediated interactions; increase in infectious particle production (SARS-CoV-2 [10]): 3 fold
B1 | – | – | – | – | – | – | – | – | – | – | – | – | – | – | – | – | – | – | 610 ± 160 | –
B2 | – | – | – | – | – | – | – | – | – | – | – | – | – | – | – | – | – | – | 170 ± 60 | –
